Results from PMC10819771 (Pharmaceuticals, 2023).
Where two headings read alike, the source gives them in different places.

Key:
[1] = system: Fc-MYCT; experiment: FRET-melting, Fc-MYCT; assay type: binding; conditions: DNA 0.2 μM, K+ conditions, pH 7.2
Procedure: (§1) FRET-melting experiments were conducted on a Stratagene MX3005P (Thermo Fisher Scientific, Illkirch-Graffenstaden, France) real-time PCR equipment in 96-well plates on the DNA sequences reported in Table 4. Experiments were performed in 10 mM lithium cacodylate buffer (pH 7.2) and either 10 mM KCl and 90 mM LiCl (FK-RAST, FBCL-2T, F21T, and FdxT) or 1 mM KCl and 99 mM LiCl (Fc-MYCT) concentrations, depending on the Tm of the G4s alone. The DNA concentration was 0.2 µM. […] Data are presented as an average of three independent measurements, each conducted in duplicate conditions (λexc = 492 nm, λem = 516 nm, T interval = 25–95 °C, ramp: 25 °C for 5 min, then 1 °C/min, measurements every 1 °C, 8× magnification of the fluorescence signal).

[2] = system: FdxT; experiment: FRET-melting, duplex control FdxT; assay type: binding; conditions: DNA 0.2 μM, 10 mM KCl, 90 mM LiCl, pH 7.2, hairpin duplex
Procedure: as §1

[3] = system: F21T (DNA, G4) GGGTTAGGGTTAGGGTTAGGG; experiment: FRET melting; conditions: 10 mM K+, 90 mM Li+, 10 mM lithium cacodylate pH 7.2, 0.2 µM DNA
[4] = system: FK-RAST; experiment: FRET-melting, FK-RAST; assay type: binding; conditions: DNA 0.2 μM, 10 mM KCl, 90 mM LiCl, pH 7.2
Procedure: as §1

[5] = system: A2780; experiment: MTT antiproliferative assay, A2780; assay type: cell-based, human; conditions: Homo sapiens, A2780; MTT, 72 h, ovarian cancer cells; read-out: IC50 Values (μM) ± SEM A2780
Procedure: (§2) The growth-inhibitory effects of the compounds were determined by MTT (3-(4,5-dimethylthiazol-2-yl)-2,5-diphenyltetrazolium bromide) assay on selected cell lines, including HeLa and SiHa (cervical cancers), MDA-MB-231 and MCF-7 (breast cancers), and A2780 ovarian cancer cells. All cell lines were purchased from the European Collection of Cell Cultures (Salisbury, UK) except SiHa, which was obtained from the American Tissue Culture Collection (Manassas, VA, USA). The cells were kept in minimum essential medium supplemented with 10% fetal bovine serum, 1% non-essential amino acids, and 1% penicillin-streptomycin-amphotericin-B at 37 °C in a humidified atmosphere containing 5% CO2. Media and supplements were obtained from Lonza Group Ltd., (Basel, Switzerland). Cancer cells were seeded onto 96-well plates (5000 cells/well), after an overnight incubation the test compounds were added in six concentrations (0.1, 0.3, 1.0, 3.0, 10.0, 30.0 µM) and incubated for 72 h under cell-culture condition. After the incubation, 20 μL of 5 mg/mL MTT solution was added to each well and incubated for a further 4 h. The medium was removed, and the precipitated formazan crystals were dissolved in DMSO for 30 min under shaking at 37 °C. The absorbance was measured at 545 nm with a microplate reader. Untreated cells were included as controls. Calculations were performed by means of the GraphPad Prism 5.01 software (GraphPad Software Inc., San Diego, CA, USA). At least two independent determinations were performed with 5 parallel wells for each condition.

[6] = system: FBCL-2T; experiment: FRET-melting, FBCL-2T; assay type: binding; conditions: DNA 0.2 μM, 10 mM KCl, 90 mM LiCl, pH 7.2
Procedure: as §1

[7] = system: human telomeric sequence F21T; experiment: FRET-melting, F21T; assay type: binding; conditions: DNA 0.2 μM, 10 mM KCl, 90 mM LiCl, pH 7.2
Procedure: as §1

[8] = system: MCF-7; experiment: MTT antiproliferative assay, MCF-7; assay type: cell-based, human; conditions: MTT, 72 h, breast cancer cells, read-out: IC50 Values (μM) ± SEM MCF-7
Procedure: as §2

[9] = system: K562; experiment: MTS cell proliferation assay, K562; assay type: cell-based, human; conditions: Homo sapiens, K562, 72 h; MTS, 3-day incubation, leukemia cells; read-out: IC50 Values (μM) ± SEM K562
Procedure: The human leukemic cell line K562 was grown in RPMI 1640 medium (Life Technology-Invitrogen by Thermo Fisher Scientific, Saint-Aubin, France) supplemented with 10% fetal calf serum (FCS), antibiotics (100 U/mL penicillin, 100 µg/mL streptomycin), and L-glutamine, (Eurobio, Les Ulis, France) at 37 °C, 5% CO2 in air. The MTS cell proliferation assay (Promega, Charbonnières-les-Bains, France) is a colorimetric assay system, which measures the transformation of a tetrazolium component (MTS) into formazan produced by the mitochondria of viable cells. Cells were washed twice in PBS (Phosphate Buffer Saline) and plated in quadruplicate into microtiter-plate wells in 100 μL culture media with or without our various compounds at increasing concentrations (0, 1, 5, 10, 20, and 50 μM) for 1, 2, and 3 days. After 3 h of incubation at 37 °C with 20 μL MTS/well, the plates were read using an ELISA microplate reader (Thermo, Electrocorporation, Waltham, MA, USA) at 490 nm. The amount of color produced was directly proportional to the number of viable cells. The results are expressed as the concentrations inhibiting cell growth by 50% after a 3-day incubation period. The 50% cytotoxic concentrations (CC50) were determined by linear regression analysis, expressed in μM ± SD (Microsoft Excel).

[10] = system: HeLa; experiment: MTT antiproliferative assay, HeLa; assay type: cell-based, human; conditions: Homo sapiens, HeLa; MTT, 72 h, cervical cancer cells; read-out: IC50 Values (μM) ± SEM HeLa
Procedure: as §2

[11] = system: SiHa; experiment: MTT antiproliferative assay, SiHa; assay type: cell-based, human; conditions: Homo sapiens, SiHa; MTT, 72 h, cervical cancer cells; read-out: IC50 Values (μM) ± SEM SiHa
Procedure: as §2

[12] = system: FK-RAST (DNA, G4) AGGGCGGTGTGGGAAGAGGGA; experiment: FRET melting; conditions: 10 mM K+, 90 mM Li+; 10 mM lithium cacodylate pH 7.2; 0.2 µM DNA, 2 µM compound
[13] = system: MDA-MB-231; experiment: MTT antiproliferative assay, MDA-MB-231; assay type: cell-based, human; conditions: MTT, 72 h, breast cancer cells, read-out: IC50 Values (μM) ± SEM MDA-MB-231
Procedure: as §2

[14] = system: Fc-MYCT (DNA, G4) GGGTGGGTAGGGTGGGTAA; experiment: FRET melting; conditions: 1 mM K+, 99 mM Li+ (table footnote says 10 mM KCl, 90 mM LiCl); 10 mM lithium cacodylate pH 7.2; 0.2 µM DNA, 2 µM compound
[15] = system: FdxT (DNA, hairpin, hexaethylene glycol linker between 10 and 11) TATAGCTATATATAGCTATA; experiment: FRET melting; conditions: 10 mM K+, 90 mM Li+; 10 mM lithium cacodylate pH 7.2; 0.2 µM DNA, 0.5 µM compound

| SMILES | ΔT1/2 (°C) Fc-MYCT ([1]; ligand 2 μM) [°C] | ΔT1/2 (°C) FdxT ([2]; ligand 2 μM) [°C] | ΔT1/2 (°C) FK-RAST ([4]; ligand 2 μM) [°C] | IC50 [5] [µM] | ΔT1/2 (°C) FBCL-2T ([6]; ligand 2 μM) [°C] | ΔT1/2 (°C) F21T ([7]; ligand 2 μM) [°C] | IC50 ([8]; Homo sapiens, MCF7, 72 h) [µM] | IC50 [9] [µM] | IC50 [10] [µM] | IC50 [11] [µM] | IC50 ([13]; Homo sapiens, MDA-MB-231, 72 h) [µM] | further results |
| --- | --- | --- | --- | --- | --- | --- | --- | --- | --- | --- | --- | --- |
| CN(C)CCCNCc1ccc(-c2nc(-c3ccc(CNCCCN(C)C)cc3)c3c(-c4ccccc4)cccc3n2)cc1 [Compound 12a, 2,4-bis{4-[(3-dimethylaminopropyl)aminomethyl]phenyl}-5-phenylquinazoline] | 9.3 ± 0.3 | 0.9 ± 0.2 | 10.6 ± 0.6 | 2.6 ± 0.03 | 7.4 ± 0.9 | 6.8 ± 0.8 | 1.12 to 1.24 | 14 ± 0.2 | 1.36 ± 0.04 | 0.62 ± 0.12 | 1.45 | ΔT1/2 ([3]; 2 µM compound): 6.8 ± 0.8 °C; IC50 [8]: 1.12 ± 0.13 µM; ΔT1/2 [12]: 10.6 ± 0.6 °C; IC50 [13]: 1.45 ± 0.14 µM |
| CN(C)CCCNCc1ccc(-c2cc(-c3ccc(CNCCCN(C)C)cc3)c3cccc(-c4ccccc4)c3n2)cc1 [Compound 13e, 2,4-bis{4-[(3-dimethylaminopropyl)aminomethyl]phenyl}-8-phenylquinoline] | 5.5 ± 0.9 | 0.2 ± 0.1 | 11.6 ± 1.4 | 1.5 ± 0.34 | 8.3 ± 0.1 | 15.9 ± 0.4 | 1.12 ± 0.1 | 7 ± 0.1 | 1.28 ± 0.21 | 1.07 ± 0.45 | 1.21 ± 0.03 | ΔT1/2 [14]: 5.5 ± 0.9 °C |
| C[n+]1cc(NC(=O)c2ccc3ccc4ccc(C(=O)Nc5cc6ccccc6[n+](C)c5)nc4c3n2)cc2ccccc21 [PhenDC3, reference compound] | – | – | – | – | – | – | – | – | – | – | – | ΔT1/2 (°C) Fc-MYCT ([1]; ligand 0.5 μM): 11.5 ± 0.3 °C; ΔT1/2 (°C) FdxT ([2]; ligand 0.5 μM): −0.6 ± 0.1 °C; ΔT1/2 [15]: -0.6 ± 0.1 °C; ΔT1/2 ([3]; 0.5 µM compound): 21.2 ± 0.5 °C; ΔT1/2 (°C) FK-RAST ([4]; ligand 0.5 μM): 16.9 ± 0.4 °C; ΔT1/2 (°C) FBCL-2T ([6]; ligand 0.5 μM): 13.1 ± 0.1 °C; ΔT1/2 (°C) F21T ([7]; ligand 0.5 μM): 21.2 ± 0.5 °C |
